{
  "source": "paper PMC12300041",
  "about": "“Tricyclic Isatin Derivatives as Anti-Inflammatory Compounds with High Kinase Binding Affinity” (Molecules, 2025)",
  "assay_in_all_cases": "KINOMEscan",
  "type_in_all_cases": "binding",
  "key": {"[1]": {"molecular_target": "T1, ABL1 (H396P)-P (Homo sapiens, UniProt P00519, H396P)", "T1 construct": "purchased Eurofins DiscoverX KINOMEscan", "in_short": "(§1)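 Active-site competition format. Unbound kinase fraction measured by affinity-ligand capture plus qPCR after 1 h at RT. Kd from 12-point half-log titration, maximum 33 μM.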"}, "[2]": {"molecular_target": "T2, ABL2 (Homo sapiens, UniProt P42684)", "T2 construct": "purchased Eurofins DiscoverX KINOMEscan", "in_short": "as §1"}, "[3]": {"molecular_target": "T3, ADCK3 (Homo sapiens, UniProt Q8NI60)", "T3 construct": "purchased Eurofins DiscoverX KINOMEscan", "T3 sequence (Q8NI60 163-647)": "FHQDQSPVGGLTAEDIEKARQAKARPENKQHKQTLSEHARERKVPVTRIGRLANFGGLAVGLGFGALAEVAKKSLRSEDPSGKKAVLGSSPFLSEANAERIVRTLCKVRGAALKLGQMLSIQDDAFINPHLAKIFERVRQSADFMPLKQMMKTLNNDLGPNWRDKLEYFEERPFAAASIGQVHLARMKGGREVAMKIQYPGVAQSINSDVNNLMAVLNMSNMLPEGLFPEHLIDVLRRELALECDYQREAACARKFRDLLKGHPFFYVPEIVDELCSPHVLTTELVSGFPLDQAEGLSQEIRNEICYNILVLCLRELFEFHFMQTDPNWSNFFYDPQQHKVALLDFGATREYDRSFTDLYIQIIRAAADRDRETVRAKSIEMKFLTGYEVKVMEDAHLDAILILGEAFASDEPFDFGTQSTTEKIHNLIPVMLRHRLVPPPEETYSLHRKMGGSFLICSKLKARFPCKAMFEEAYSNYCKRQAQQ", "in_short": "(§2)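 A 12-point half-log dilution series topping at 33 μM defined each Kd. The kinase fraction escaping compound binding over 1 h at room temperature was trapped by an immobilized affinity ligand and measured by quantitative PCR.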"}, "[4]": {"molecular_target": "T4, AKT3 (Homo sapiens, UniProt Q9Y243)", "T4 construct": "purchased Eurofins DiscoverX KINOMEscan", "in_short": "as §1"}, "[5]": {"molecular_target": "T5, BIKE (Homo sapiens, UniProt Q9NSY1)", "T5 construct": "purchased Eurofins DiscoverX KINOMEscan", "in_short": "as §2"}, "[6]": {"molecular_target": "T6, BRAF (V600E) (Homo sapiens, UniProt P15056, V600E)", "T6 construct": "purchased Eurofins DiscoverX KINOMEscan", "in_short": "as §1"}, "[7]": {"molecular_target": "T7, BTK (Homo sapiens, UniProt Q06187)", "T7 construct": "purchased Eurofins DiscoverX KINOMEscan", "in_short": "as §1"}, "[8]": {"molecular_target": "T8, CAMK4 (Homo sapiens, UniProt Q16566)", "T8 construct": "purchased Eurofins DiscoverX KINOMEscan", "in_short": "as §1"}, "[9]": {"molecular_target": "T9, CDK4-cyclinD1 (Homo sapiens, UniProt P11802)", "T9 construct": "purchased Eurofins DiscoverX KINOMEscan", "in_short": "as §2"}, "[10]": {"molecular_target": "T10, CDK4-cyclinD3 (Homo sapiens, UniProt P11802)", "T10 construct": "purchased Eurofins DiscoverX KINOMEscan", "in_short": "as §1"}, "[11]": {"molecular_target": "T11, CSK (Homo sapiens, UniProt P41240)", "T11 construct": "purchased Eurofins DiscoverX KINOMEscan", "in_short": "as §1"}, "[12]": {"molecular_target": "T12, CSNK1D (Homo sapiens, UniProt P48730)", "T12 construct": "purchased Eurofins DiscoverX KINOMEscan", "in_short": "as §2"}, "[13]": {"molecular_target": "T13, ERK2 (Homo sapiens, UniProt P28482)", "T13 construct": "purchased Eurofins DiscoverX KINOMEscan", "in_short": "as §1"}, "[14]": {"molecular_target": "T14, FGFR2 (Homo sapiens, UniProt P21802)", "T14 construct": "purchased Eurofins DiscoverX KINOMEscan", "in_short": "as §1"}, "[15]": {"molecular_target": "T15, FLT3-autoinhibited (Homo sapiens, UniProt P36888)", "T15 construct": "purchased Eurofins DiscoverX KINOMEscan", "T15 sequence (P36888 27-993)": "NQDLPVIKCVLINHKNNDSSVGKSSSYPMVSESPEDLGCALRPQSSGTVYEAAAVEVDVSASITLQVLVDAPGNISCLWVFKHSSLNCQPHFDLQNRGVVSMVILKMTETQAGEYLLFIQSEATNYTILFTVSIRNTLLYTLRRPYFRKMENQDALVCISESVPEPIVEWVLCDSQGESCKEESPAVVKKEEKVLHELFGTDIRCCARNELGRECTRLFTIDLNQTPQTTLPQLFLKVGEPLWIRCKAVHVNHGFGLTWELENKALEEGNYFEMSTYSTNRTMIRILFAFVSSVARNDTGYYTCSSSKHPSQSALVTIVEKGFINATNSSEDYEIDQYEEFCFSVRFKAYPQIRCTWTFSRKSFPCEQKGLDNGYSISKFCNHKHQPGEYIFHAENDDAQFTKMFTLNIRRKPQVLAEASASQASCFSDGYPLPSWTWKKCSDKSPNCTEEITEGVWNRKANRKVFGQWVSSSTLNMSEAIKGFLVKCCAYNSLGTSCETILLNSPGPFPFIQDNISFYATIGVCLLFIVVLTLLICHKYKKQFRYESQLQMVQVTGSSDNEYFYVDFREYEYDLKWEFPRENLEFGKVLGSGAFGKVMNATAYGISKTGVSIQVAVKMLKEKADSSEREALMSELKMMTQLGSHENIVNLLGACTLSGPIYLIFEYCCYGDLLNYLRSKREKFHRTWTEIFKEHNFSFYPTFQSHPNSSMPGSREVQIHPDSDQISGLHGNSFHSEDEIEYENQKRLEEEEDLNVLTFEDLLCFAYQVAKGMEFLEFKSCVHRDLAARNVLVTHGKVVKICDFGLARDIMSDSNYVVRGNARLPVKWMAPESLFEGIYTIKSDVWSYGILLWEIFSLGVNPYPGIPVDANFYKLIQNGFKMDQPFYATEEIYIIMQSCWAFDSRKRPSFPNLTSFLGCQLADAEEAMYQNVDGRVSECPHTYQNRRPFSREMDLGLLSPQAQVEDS", "in_short": "as §1"}, "[16]": {"molecular_target": "T16, IKK-α (Homo sapiens, UniProt O15111)", "T16 construct": "purchased Eurofins DiscoverX KINOMEscan", "in_short": "as §2"}, "[17]": {"molecular_target": "T17, INSRR (Homo sapiens, UniProt P14616)", "T17 construct": "purchased Eurofins DiscoverX KINOMEscan", "in_short": "as §1"}, "[18]": {"molecular_target": "T18, IRAK4 (Homo sapiens, UniProt Q9NWZ3)", "T18 construct": "purchased Eurofins DiscoverX KINOMEscan", "in_short": "as §2"}, "[19]": {"molecular_target": "T19, KIT (V559D, V654A) (Homo sapiens, UniProt P10721, V559D/V654A)", "T19 construct": "purchased Eurofins DiscoverX KINOMEscan", "in_short": "as §2"}, "[20]": {"molecular_target": "T20, MAP4K2 (Homo sapiens, UniProt Q12851)", "T20 construct": "purchased Eurofins DiscoverX KINOMEscan", "in_short": "as §1"}, "[21]": {"molecular_target": "T21, MARK1 (Homo sapiens, UniProt Q9P0L2)", "T21 construct": "purchased Eurofins DiscoverX KINOMEscan", "in_short": "as §1"}, "[22]": {"molecular_target": "T22, MEK1 (Homo sapiens, UniProt Q02750)", "T22 construct": "purchased Eurofins DiscoverX KINOMEscan", "in_short": "as §1"}, "[23]": {"molecular_target": "T23, MEK3 (Homo sapiens, UniProt P46734)", "T23 construct": "purchased Eurofins DiscoverX KINOMEscan", "in_short": "as §1"}, "[24]": {"molecular_target": "T24, MET (M1250T) (Homo sapiens, UniProt P08581, M1250T)", "T24 construct": "purchased Eurofins DiscoverX KINOMEscan", "in_short": "as §1"}, "[25]": {"molecular_target": "T25, MRCKB (Homo sapiens, UniProt Q9Y5S2)", "T25 construct": "purchased Eurofins DiscoverX KINOMEscan", "in_short": "as §1"}, "[26]": {"molecular_target": "T26, MST2 (Homo sapiens, UniProt Q13188)", "T26 construct": "purchased Eurofins DiscoverX KINOMEscan", "in_short": "as §1"}, "[27]": {"molecular_target": "T27, NIM1 (Homo sapiens, UniProt Q8IY84)", "T27 construct": "purchased Eurofins DiscoverX KINOMEscan", "in_short": "as §1"}, "[28]": {"molecular_target": "T28, PAK1 (Homo sapiens, UniProt Q13153)", "T28 construct": "purchased Eurofins DiscoverX KINOMEscan", "in_short": "as §1"}, "[29]": {"molecular_target": "T29, PIK3CA (Homo sapiens, UniProt P42336)", "T29 construct": "purchased Eurofins DiscoverX KINOMEscan", "in_short": "as §1"}, "[30]": {"molecular_target": "T30, PIK3CB (Homo sapiens, UniProt P42338)", "T30 construct": "purchased Eurofins DiscoverX KINOMEscan", "in_short": "as §2"}, "[31]": {"molecular_target": "T31, PIK3CD (Homo sapiens, UniProt O00329)", "T31 construct": "purchased Eurofins DiscoverX KINOMEscan", "in_short": "as §1"}, "[32]": {"molecular_target": "T32, PLK2 (Homo sapiens, UniProt Q9NYY3)", "T32 construct": "purchased Eurofins DiscoverX KINOMEscan", "in_short": "as §2"}, "[33]": {"molecular_target": "T33, PLK3 (Homo sapiens, UniProt Q9H4B4)", "T33 construct": "purchased Eurofins DiscoverX KINOMEscan", "in_short": "as §2"}, "[34]": {"molecular_target": "T34, RET (V804M) (Homo sapiens, UniProt P07949, V804M)", "T34 construct": "purchased Eurofins DiscoverX KINOMEscan", "in_short": "as §1"}, "[35]": {"molecular_target": "T35, ROCK1 (Homo sapiens, UniProt Q13464)", "T35 construct": "purchased Eurofins DiscoverX KINOMEscan", "T35 sequence (Q13464 whole entry)": "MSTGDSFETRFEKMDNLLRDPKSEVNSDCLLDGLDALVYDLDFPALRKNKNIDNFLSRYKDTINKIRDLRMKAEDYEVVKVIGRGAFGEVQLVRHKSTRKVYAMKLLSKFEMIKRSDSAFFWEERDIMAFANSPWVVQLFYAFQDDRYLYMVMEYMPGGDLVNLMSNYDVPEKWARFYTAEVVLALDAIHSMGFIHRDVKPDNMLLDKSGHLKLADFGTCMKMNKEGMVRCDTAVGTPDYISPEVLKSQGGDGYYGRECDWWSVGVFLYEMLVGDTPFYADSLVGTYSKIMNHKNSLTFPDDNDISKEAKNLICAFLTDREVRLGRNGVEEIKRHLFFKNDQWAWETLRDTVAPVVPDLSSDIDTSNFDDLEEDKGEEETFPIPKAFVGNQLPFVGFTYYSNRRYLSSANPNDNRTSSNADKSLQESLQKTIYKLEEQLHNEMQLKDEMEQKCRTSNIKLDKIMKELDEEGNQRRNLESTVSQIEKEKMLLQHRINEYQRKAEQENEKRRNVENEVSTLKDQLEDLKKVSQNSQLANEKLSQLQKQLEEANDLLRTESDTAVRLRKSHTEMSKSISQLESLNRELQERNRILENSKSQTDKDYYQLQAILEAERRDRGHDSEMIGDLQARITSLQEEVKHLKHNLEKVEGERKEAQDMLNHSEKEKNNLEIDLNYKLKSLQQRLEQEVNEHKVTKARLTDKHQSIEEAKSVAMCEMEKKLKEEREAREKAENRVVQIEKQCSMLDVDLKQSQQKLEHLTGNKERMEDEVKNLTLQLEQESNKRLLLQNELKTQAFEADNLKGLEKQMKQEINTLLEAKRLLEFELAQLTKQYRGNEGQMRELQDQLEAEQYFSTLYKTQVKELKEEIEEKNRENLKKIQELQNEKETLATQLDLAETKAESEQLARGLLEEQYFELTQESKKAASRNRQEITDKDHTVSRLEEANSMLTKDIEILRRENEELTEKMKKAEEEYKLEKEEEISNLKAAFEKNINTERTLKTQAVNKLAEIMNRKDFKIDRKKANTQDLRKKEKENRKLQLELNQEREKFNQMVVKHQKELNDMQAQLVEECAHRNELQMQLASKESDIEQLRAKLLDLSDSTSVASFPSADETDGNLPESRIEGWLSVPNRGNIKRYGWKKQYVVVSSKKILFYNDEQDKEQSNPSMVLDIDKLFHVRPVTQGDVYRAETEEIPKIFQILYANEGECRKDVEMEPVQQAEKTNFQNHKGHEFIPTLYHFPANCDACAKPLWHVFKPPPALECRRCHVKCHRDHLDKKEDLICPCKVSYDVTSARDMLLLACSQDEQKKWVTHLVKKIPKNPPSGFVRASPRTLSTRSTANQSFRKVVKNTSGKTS", "in_short": "as §1"}, "[36]": {"molecular_target": "T36, RPS6KA4 (Kin. Dom.2-C-term.) (Homo sapiens, UniProt O75676)", "T36 construct": "RPS6KA4 (Kin. Dom.2-C-term.); purchased Eurofins DiscoverX KINOMEscan", "in_short": "as §1"}, "[37]": {"molecular_target": "T37, SRMS (Homo sapiens, UniProt Q9H3Y6)", "T37 construct": "purchased Eurofins DiscoverX KINOMEscan", "T37 sequence (Q9H3Y6 whole entry)": "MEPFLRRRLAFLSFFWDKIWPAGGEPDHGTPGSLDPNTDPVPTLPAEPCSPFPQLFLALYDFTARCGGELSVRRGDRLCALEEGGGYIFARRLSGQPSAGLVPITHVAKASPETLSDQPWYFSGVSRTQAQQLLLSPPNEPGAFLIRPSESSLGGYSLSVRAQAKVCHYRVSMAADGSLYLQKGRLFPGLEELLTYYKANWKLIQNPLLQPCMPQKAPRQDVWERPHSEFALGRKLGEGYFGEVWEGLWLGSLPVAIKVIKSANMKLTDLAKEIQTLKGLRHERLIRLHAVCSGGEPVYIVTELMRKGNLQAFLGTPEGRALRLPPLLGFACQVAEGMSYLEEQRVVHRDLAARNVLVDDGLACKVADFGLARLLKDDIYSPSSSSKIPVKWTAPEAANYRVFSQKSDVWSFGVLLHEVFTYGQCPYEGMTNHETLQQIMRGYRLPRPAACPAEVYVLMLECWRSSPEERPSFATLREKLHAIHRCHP", "in_short": "as §1"}, "[38]": {"molecular_target": "T38, TRKC (Homo sapiens, UniProt Q16288)", "T38 construct": "purchased Eurofins DiscoverX KINOMEscan", "T38 sequence (Q16288 32-839)": "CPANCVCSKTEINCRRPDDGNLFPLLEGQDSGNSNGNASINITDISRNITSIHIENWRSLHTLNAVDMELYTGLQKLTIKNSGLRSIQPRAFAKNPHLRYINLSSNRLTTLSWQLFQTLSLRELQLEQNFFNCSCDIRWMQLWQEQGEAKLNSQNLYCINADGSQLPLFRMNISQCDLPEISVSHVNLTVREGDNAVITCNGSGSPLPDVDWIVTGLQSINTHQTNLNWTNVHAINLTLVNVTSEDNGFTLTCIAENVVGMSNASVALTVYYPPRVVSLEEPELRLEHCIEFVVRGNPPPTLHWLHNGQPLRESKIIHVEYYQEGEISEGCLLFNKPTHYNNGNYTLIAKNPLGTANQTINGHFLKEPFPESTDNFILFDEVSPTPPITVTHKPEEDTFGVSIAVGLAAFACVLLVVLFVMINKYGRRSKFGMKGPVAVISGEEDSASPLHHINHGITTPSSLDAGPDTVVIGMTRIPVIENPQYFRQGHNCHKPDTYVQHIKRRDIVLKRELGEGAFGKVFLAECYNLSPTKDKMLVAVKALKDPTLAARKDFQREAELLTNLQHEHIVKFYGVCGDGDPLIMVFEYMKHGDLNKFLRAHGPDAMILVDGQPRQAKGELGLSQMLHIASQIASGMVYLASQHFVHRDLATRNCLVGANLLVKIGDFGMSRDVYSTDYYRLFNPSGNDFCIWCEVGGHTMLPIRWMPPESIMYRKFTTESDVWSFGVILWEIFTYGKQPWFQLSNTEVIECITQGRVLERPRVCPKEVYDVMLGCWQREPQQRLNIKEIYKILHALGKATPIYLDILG", "in_short": "as §2"}, "[39]": {"molecular_target": "T39, ZAP70 (Homo sapiens, UniProt P43403)", "T39 construct": "purchased Eurofins DiscoverX KINOMEscan", "T39 sequence (P43403 whole entry)": "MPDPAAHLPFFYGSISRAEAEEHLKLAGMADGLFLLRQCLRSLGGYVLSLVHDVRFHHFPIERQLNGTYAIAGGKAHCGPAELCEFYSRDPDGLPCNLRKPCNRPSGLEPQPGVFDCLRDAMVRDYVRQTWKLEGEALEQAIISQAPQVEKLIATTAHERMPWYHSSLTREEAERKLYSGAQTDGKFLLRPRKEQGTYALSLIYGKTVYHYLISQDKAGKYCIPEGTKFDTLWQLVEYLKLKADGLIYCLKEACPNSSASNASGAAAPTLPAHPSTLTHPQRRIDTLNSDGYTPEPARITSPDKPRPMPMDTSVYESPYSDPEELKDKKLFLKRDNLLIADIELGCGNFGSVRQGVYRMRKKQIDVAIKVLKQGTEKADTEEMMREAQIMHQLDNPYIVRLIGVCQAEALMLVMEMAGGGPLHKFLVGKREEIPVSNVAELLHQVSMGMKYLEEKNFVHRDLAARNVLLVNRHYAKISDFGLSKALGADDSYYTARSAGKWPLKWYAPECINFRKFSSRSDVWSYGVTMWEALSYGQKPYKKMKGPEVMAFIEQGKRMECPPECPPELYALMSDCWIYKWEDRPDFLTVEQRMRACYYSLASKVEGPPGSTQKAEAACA", "in_short": "as §1"}},
  "data": [
    {"smiles": "O=C1Nc2c(cc([N+](=O)[O-])c3c2CCCC3)C1=NO", "note": "[Compound 5d, 3-(Hydroxyimino)-5-nitro-1,3,6,7,8,9-hexahydro-2H-benzo[g]indol-2-one]", "values": [
      {"measurement": "inhibition at 10 µM", "setting": "[1]", "result": 41, "unit": "%"},
      {"measurement": "inhibition at 10 µM", "setting": "[2]", "result": 2, "unit": "%"},
      {"measurement": "inhibition at 10 µM", "setting": "[3]", "result": 12, "unit": "%"},
      {"measurement": "inhibition at 10 µM", "setting": "[4]", "result": 9, "unit": "%"},
      {"measurement": "inhibition at 10 µM", "setting": "[5]", "result": 75, "unit": "%"},
      {"measurement": "inhibition at 10 µM", "setting": "[6]", "result": 23, "unit": "%"},
      {"measurement": "inhibition at 10 µM", "setting": "[7]", "result": 39, "unit": "%"},
      {"measurement": "inhibition at 10 µM", "setting": "[8]", "result": 7, "unit": "%"},
      {"measurement": "inhibition at 10 µM", "setting": "[9]", "result": 9, "unit": "%"},
      {"measurement": "inhibition at 10 µM", "setting": "[10]", "result": 22, "unit": "%"},
      {"measurement": "inhibition at 10 µM", "setting": "[11]", "result": 21, "unit": "%"},
      {"measurement": "inhibition at 10 µM", "setting": "[12]", "result": 79, "unit": "%"},
      {"measurement": "inhibition at 10 µM", "setting": "[13]", "result": 8, "unit": "%"},
      {"measurement": "inhibition at 10 µM", "setting": "[14]", "result": 19, "unit": "%"},
      {"measurement": "inhibition at 10 µM", "setting": "[15]", "result": 4, "unit": "%"},
      {"measurement": "inhibition at 10 µM", "setting": "[16]", "result": 52, "unit": "%"},
      {"measurement": "inhibition at 10 µM", "setting": "[17]", "result": 4, "unit": "%"},
      {"measurement": "inhibition at 10 µM", "setting": "[18]", "result": 86, "unit": "%"},
      {"measurement": "inhibition at 10 µM", "setting": "[19]", "result": 0, "unit": "%"},
      {"measurement": "inhibition at 10 µM", "setting": "[20]", "result": 53, "unit": "%"},
      {"measurement": "inhibition at 10 µM", "setting": "[21]", "result": 24, "unit": "%"},
      {"measurement": "inhibition at 10 µM", "setting": "[22]", "result": 93.1, "unit": "%"},
      {"measurement": "inhibition at 10 µM", "setting": "[23]", "result": 94, "unit": "%"},
      {"measurement": "inhibition at 10 µM", "setting": "[24]", "result": 51, "unit": "%"},
      {"measurement": "inhibition at 10 µM", "setting": "[25]", "result": 0, "unit": "%"},
      {"measurement": "inhibition at 10 µM", "setting": "[26]", "result": 39, "unit": "%"},
      {"measurement": "inhibition at 10 µM", "setting": "[27]", "result": 52, "unit": "%"},
      {"measurement": "inhibition at 10 µM", "setting": "[28]", "result": 0, "unit": "%"},
      {"measurement": "inhibition at 10 µM", "setting": "[29]", "result": 0, "unit": "%"},
      {"measurement": "inhibition at 10 µM", "setting": "[30]", "result": 0, "unit": "%"},
      {"measurement": "inhibition at 10 µM", "setting": "[31]", "result": 42, "unit": "%"},
      {"measurement": "inhibition at 10 µM", "setting": "[32]", "result": 67, "unit": "%"},
      {"measurement": "inhibition at 10 µM", "setting": "[33]", "result": 51, "unit": "%"},
      {"measurement": "inhibition at 10 µM", "setting": "[34]", "result": 4, "unit": "%"},
      {"measurement": "inhibition at 10 µM", "setting": "[35]", "result": 61, "unit": "%"},
      {"measurement": "inhibition at 10 µM", "setting": "[36]", "result": 89.3, "unit": "%"},
      {"measurement": "inhibition at 10 µM", "setting": "[37]", "result": 29, "unit": "%"},
      {"measurement": "inhibition at 10 µM", "setting": "[38]", "result": 31, "unit": "%"},
      {"measurement": "inhibition at 10 µM", "setting": "[39]", "result": 2, "unit": "%"}
    ]}
  ]
}
